Test results: patent US6737383B1, “Herbicidal oxadiazolidines” (priority 1999, dated 2004)

Key:
blackgrass = experiment: Test B pre/postemergence blackgrass; type: in vivo, Alopecurus myosuroides
How it was run: (§1)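 Herbicidal effect was estimated by eye on a ten-point control scale after plants spent twelve to sixteen days in a greenhouse following soil or foliar treatment. Foliar sprays targeted plants at one to four leaves; all doses were formulated in a non-phytotoxic solvent with surfactant.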

giant foxtail = experiment: Test B pre/postemergence giant foxtail; type: in vivo, Setaria faberii
How it was run: as §1

wheat = experiment: Test B pre/postemergence wheat; type: in vivo, Triticum aestivum
How it was run: as §1

purple nutsedge = experiment: Test B pre/postemergence purple nutsedge; type: in vivo, Cyperus rotundus
How it was run: as §1

[1] = Postemergence, Rate 125 g/ha, scale of 0 to 10 where 0 is no effect and 10 is complete control
[2] = Preemergence, Rate 62 g/ha, scale of 0 to 10 where 0 is no effect and 10 is complete control
[3] = Preemergence, Rate 125 g/ha, 0 is no effect, 10 is complete control
[4] = Preemergence, Rate 250 g/ha, scale 0 to 10, 0 is no effect, 10 is complete control
[5] = Preemergence, Rate 500 g/ha, scale 0 to 10 (0 no effect, 10 complete control)
[6] = Rate 62 g/ha, Postemergence, scale of 0 to 10 where 0 is no effect and 10 is complete control
[7] = Rate 250 g/ha, Postemergence, scale 0 to 10, 0 is no effect, 10 is complete control
[8] = Rate 500 g/ha, Postemergence, scale 0 to 10
[9] = Postemergence, Rate 125 g/ha, scale 0 to 10, 0 is no effect, 10 is complete control
[10] = Postemergence, Rate 250 g/ha, scale 0 to 10, 0 is no effect, 10 is complete control
[11] = Preemergence, Rate 62 g/ha, scale 0 to 10 (0 no effect, 10 complete control)
[12] = Preemergence, Rate 250 g/ha, scale of 0 to 10 where 0 is no effect and 10 is complete control
[13] = Preemergence, Rate 500 g/ha, scale of 0 to 10 where 0 is no effect and 10 is complete control
[14] = Rate 500 g/ha, Postemergence, scale 0 to 10, 0 no effect, 10 complete control
[15] = Rate 62 g/ha, Postemergence, scale 0 to 10 (0 no effect, 10 complete control)
[16] = Rate 125 g/ha, Postemergence, scale of 0 to 10 where 0 is no effect and 10 is complete control
[17] = Rate 125 g/ha, Preemergence, scale of 0 to 10 where 0 is no effect and 10 is complete control
[18] = Rate 250 g/ha, Postemergence, scale of 0 to 10 where 0 is no effect and 10 is complete control

Cc1nsc(C)c1-n1c(=O)on(C(=O)N(c2ccc(Cl)cc2)C(C)C)c1=O [Compound 159]
Blackgrass plant response rating (blackgrass; [1]): 0
Blackgrass plant response rating (blackgrass; [2]): 0
Blackgrass plant response rating (0 to 10 scale) (blackgrass; [3]): 0
Blackgrass plant response rating (blackgrass; [4]): 0
Blackgrass plant response rating (blackgrass; [5]): 0
Blackgrass plant response rating (blackgrass; [6]): 0
Plant response rating, Blackgrass (blackgrass; [7]): 0
Blackgrass plant response rating (blackgrass; [8]): 0
Giant foxtail plant response rating (giant foxtail; [1]): 0
Giant foxtail plant response rating (giant foxtail; [2]): 0
Giant foxtail plant response rating (0 to 10 scale) (giant foxtail; [3]): 0
Giant foxtail plant response rating (giant foxtail; [4]): 0
Giant foxtail plant response rating (giant foxtail; [5]): 0
Giant foxtail plant response rating (giant foxtail; [6]): 0
Plant response rating, Giant foxtail (giant foxtail; [7]): 0
Giant foxtail plant response rating (giant foxtail; [8]): 0
Wheat plant response rating (wheat; [2]): 0
Wheat plant response rating (0 to 10 scale) (wheat; [3]): 0
Wheat plant response rating (wheat; [4]): 0
Wheat plant response rating (wheat; [5]): 0
Plant response rating, Wheat (wheat; [7]): 0
Wheat plant response rating (wheat; [8]): 0
Nutsedge plant response rating (purple nutsedge; [1]): 0
Nutsedge plant response rating (purple nutsedge; [2]): 0
Nutsedge plant response rating (0 to 10 scale) (purple nutsedge; [3]): 0
Nutsedge plant response rating (purple nutsedge; [4]): 0
Nutsedge plant response rating (purple nutsedge; [5]): 0
Nutsedge plant response rating (purple nutsedge; [6]): 0
Plant response rating, Nutsedge (purple nutsedge; [7]): 0
Nutsedge plant response rating (purple nutsedge; [8]): 0

CCOc1nc(C(F)(F)F)c(Cn2c(=O)on(C(=O)N(c3ccccc3)C(C)C)c2=O)s1 [Compound 379]
Plant response rating, Blackgrass (blackgrass; [9]): 0
Plant response rating, Blackgrass (blackgrass; [10]): 0
Plant response rating, Blackgrass (blackgrass; [11]): 0
Blackgrass plant response rating (0 to 10 scale) (blackgrass; Preemergence, Rate 125 g/ha): 0
Blackgrass plant response rating (blackgrass; [12]): 0
Blackgrass plant response rating (blackgrass; [13]): 0
Blackgrass plant response rating (blackgrass; [6]): 0
Plant response rating, Blackgrass (blackgrass; [14]): 0
Plant response rating, Giant foxtail (giant foxtail; [9]): 0
Plant response rating, Giant foxtail (giant foxtail; [10]): 2
Plant response rating, Giant foxtail (giant foxtail; [11]): 0
Giant foxtail plant response rating (0 to 10 scale) (giant foxtail; Preemergence, Rate 125 g/ha): 1
Giant foxtail plant response rating (giant foxtail; [12]): 6
Giant foxtail plant response rating (giant foxtail; [13]): 9
Giant foxtail plant response rating (giant foxtail; [6]): 0
Plant response rating, Giant foxtail (giant foxtail; [14]): 7
Plant response rating, Wheat (wheat; [9]): 0
Plant response rating, Wheat (wheat; [10]): 0
Plant response rating, Wheat (wheat; [11]): 0
Wheat plant response rating (0 to 10 scale) (wheat; Preemergence, Rate 125 g/ha): 0
Wheat plant response rating (wheat; [12]): 0
Wheat plant response rating (wheat; [13]): 0
Wheat plant response rating (wheat; [6]): 0
Plant response rating, Wheat (wheat; [14]): 0
Plant response rating, Nutsedge (purple nutsedge; [9]): 0
Plant response rating, Nutsedge (purple nutsedge; [10]): 0
Plant response rating, Nutsedge (purple nutsedge; [11]): 0
Nutsedge plant response rating (0 to 10 scale) (purple nutsedge; Preemergence, Rate 125 g/ha): 0
Nutsedge plant response rating (purple nutsedge; [12]): 0
Nutsedge plant response rating (purple nutsedge; [13]): 0
Nutsedge plant response rating (purple nutsedge; [6]): 0
Plant response rating, Nutsedge (purple nutsedge; [14]): 0

CC(C)N(C(=O)n1oc(=O)n(C[Si](C)(C)C)c1=O)c1ccc(F)cc1 [Compound 294]
Blackgrass plant response rating (blackgrass; [2]): 0
Blackgrass plant response rating (blackgrass; [12]): 6
Plant response rating, Blackgrass (blackgrass; [13]): 10
Blackgrass plant response rating (blackgrass; [15]): 0
Blackgrass plant response rating (blackgrass; [16]): 0
Blackgrass plant response rating (blackgrass; [17]): 3
Plant response rating, Blackgrass (blackgrass; [18]): 7
Blackgrass plant response rating (blackgrass; [14]): 8
Giant foxtail plant response rating (giant foxtail; [2]): 7
Giant foxtail plant response rating (giant foxtail; [12]): 10
Plant response rating, Giant foxtail (giant foxtail; [13]): 10
Giant foxtail plant response rating (giant foxtail; [15]): 0
Giant foxtail plant response rating (giant foxtail; [16]): 0
Giant foxtail plant response rating (giant foxtail; [17]): 9
Plant response rating, Giant foxtail (giant foxtail; [18]): 2
Wheat plant response rating (wheat; [2]): 0
Wheat plant response rating (wheat; [12]): 0
Plant response rating, Wheat (wheat; [13]): 0
Wheat plant response rating (wheat; [15]): 0
Wheat plant response rating (wheat; [16]): 0
Wheat plant response rating (wheat; [17]): 0
Plant response rating, Wheat (wheat; [18]): 0
Nutsedge plant response rating (purple nutsedge; [2]): 0
Nutsedge plant response rating (purple nutsedge; [12]): 0
Plant response rating, Nutsedge (purple nutsedge; [13]): 0
Nutsedge plant response rating (purple nutsedge; [15]): 0
Nutsedge plant response rating (purple nutsedge; [16]): 0
Nutsedge plant response rating (purple nutsedge; [17]): 0
Plant response rating, Nutsedge (purple nutsedge; [18]): 0
